Tested on: subjects with Acute Migraines
Test: Study 301 (BHV3000-301, NCT03235479): Phase 3 double-blind placebo-controlled trial, rimegepant 75 mg tablet, acute treatment of migraine
Format: in vivo, human
Details: for Freedom from MBS at 2 hours / Pain Freedom (pain-free) at 2 hours: N = 543
Description: Clinical Trial—BHV3000-301: Phase 3: Double-Blind, Randomized, Placebo-Controlled, Safety and Efficacy Trial of BHV-3000 (Rimegepant) for the Acute Treatment of Migraine (ClinicalTrials.gov Identifier: NCT03235479). A phase 3 clinical study was conducted with 1490 participants, as follows. The purpose of this study was to compare the efficacy of BHV-3000 (rimegepant) versus placebo in subjects with Acute Migraines Study Design • Study Type: Interventional (Clinical Trial) • Actual Enrollment: 1490 participants • Allocation: Randomized • Intervention Model: Parallel Assignment • Intervention Model Description: Double-blind to Sponsor, Investigator and Subject Randomized Controlled Trial • Masking: Triple (Participant, Care Provider, Investigator) • Masking Description: Double-blind to Sponsor, Investigator and Subject • Primary Purpose: Treatment • Official Title: BHV3000-301: Phase 3: Double-Blind, Randomized, Placebo-Controlled, Safety and Efficacy Trial of BHV-3000 (Rimegepant) for the Acute Treatment of Migraine Arms and Interventions Outcome Measures Primary Outcome Measures: • 1. Pain freedom of rimegepant (75 mg tablet) compared with placebo in the acute treatment of migraine will be measured using the number of evaluable subjects that report no pain at 2 hours post-dose. [Time Frame: Two hours post dose] • Pain will be measured on a 4 point Likert scale (0=none, 1=mild, 2=moderate, 3=severe) • 2. Freedom from the most bothersome symptom (MBS) of rimegepant (75 mg tablet) compared with placebo will be measured using the number of evaluable subjects that report the absence of their MBS at 2 hours post-dose. [Time Frame: Two hours post dose] • The MBS (nausea, phonophobia or photophobia) will measured using a binary scale (0=absent, 1=present). Secondary Outcome Measures: • 1. […] [Time Frame: 2 hours-24 hours post-dose] • Sustained Pain Freedom as measured by a 4 point numeric rating scale (None, Mild, Moderate, Severe) • 2. The difference between rimegepant (75 mg tablet) compared to placebo by tabulating the absence of photophobia at 2 hours post-dose in the subset of subjects that reported the presence of photophobia at headache baseline. [Time Frame: 2 hours post-dose] • Photophobia • 3. To evaluate rimegepant (75 mg tablet) compared to placebo by tabulating the number of subjects that report the absence of phonophobia at 2 hours post-dose in the subset of subjects that reported the presence of phonophobia at headache baseline. [Time Frame: 2 hours post-dose] • Phonophobia • 4. To measure the difference between rimegepant (75 mg tablet) compared to placebo on Pain Relief, at 2 hours post-dose, for those that report a pain level of moderate or severe at baseline and then report a pain level of none or mild. [Time Frame: 2 hours post-dose] • Pain Relief as measured by a 4 point numeric rating scale (None, Mild, Moderate, Severe) • 5. Freedom from Nausea by tabulating the number of subjects that report the absence of nausea at 2 hours post-dose in the subset of subjects that reported the presence of nausea at headache baseline. [Time Frame: 2 hours post-dose] • Freedom from Nausea • 6. The difference between rimegepant (75 mg tablet) compared to placebo on the probability of requiring rescue medication using the number of subjects that take rescue medication within […] administration of study medication (BHV3000 or placebo). [Time Frame: up to 24 hours post-dose] • Requiring Rescue Medication • 7. […] [Time Frame: 2 hours-24 hours post-dose] • Sustained Pain Freedom • 8. […] [Time Frame: 2 hours-24 hours post-dose] • Sustained Pain Relief as measured by a 4 point numeric rating scale (None, Mild, Moderate, Severe) • 9. […] [Time Frame: 2 hours-48 hours post-dose] • Sustained Pain Relief as measured by a 4 point numeric rating scale (None, Mild, Moderate, Severe) • 10. […]

[1] = Study 301, single 75 mg tablet, listed as rimegepant

SMILES: N[C@@H]1c2cccnc2[C@H](OC(=O)N2CCC(n3c(=O)[nH]c4ncccc43)CC2)CC[C@H]1c1cccc(F)c1F [Rimegepant, [(5S,6S,9R)-5-amino-6-(2,3-difluorophenyl)-6,7,8,9-tetrahydro-5H-cyclohepta[b]pyridin-9-yl] 4-(2-oxo-3H-imidazo[4,5-b]pyridin-1-yl)piperidine-1-carboxylate]
- SAEs related to the study drug (Study 301): No SAE
- bilirubin elevations >2 times ULN (Study 301): No bilirubin elevations
- transaminase level >5 times ULN (Study 301): no subject
- AE dizziness (Study 301, 4/546): 0.7%
- AE nausea (Study 301, 5/546): 0.9%
- Serum ALT or AST levels greater than ULN (Study 301, 11/546): 2.0%
- functional disability: patients achieving normal function at 2 hours versus placebo (Study 301, P<0.0001): greater proportion
- Serious AEs (SAEs) (Study 301, n=2): 0.4%
- transaminase level >3 times ULN (Study 301, one subject): 0.2%
- Free from MBS at 2 hours, subjects [n/N] (Study 301, single 75 mg tablet): [199/543]
- Nausea-free at 2 hours (Study 301, single 75 mg tablet): 46.9%
- Nausea-free at 2 hours, subjects [n/N] (Study 301, single 75 mg tablet): [149/318]
- Pain relief at 2 hours (Study 301, single 75 mg tablet): 56.0%
- Pain relief at 2 hours, subjects [n/N] (Study 301, single 75 mg tablet): [304/543]
- Pain-free at 2 hours, subjects [n/N] (Study 301, single 75 mg tablet): [104/543]
- Phonophobia-free at 2 hours (Study 301, single 75 mg tablet): 38.6%
- Phonophobia-free at 2 hours, subjects [n/N] (Study 301, single 75 mg tablet): [133/345]
- Photophobia-free at 2 hours (Study 301, single 75 mg tablet): 34.9%
- Photophobia-free at 2 hours, subjects [n/N] (Study 301, single 75 mg tablet): [164/470]
- Sustained pain relief, 2-24 hours (Study 301, single 75 mg tablet): 38.9%
- Sustained pain relief, 2-24 hours, subjects [n/N] (Study 301, single 75 mg tablet): [211/543]
- Freedom from MBS at 2 hours (Study 301, single 75 mg tablet): 36.6%
- Pain Freedom (pain-free) at 2 hours (Study 301, single 75 mg tablet): 19.2%
- Freedom from MBS at 2 hours [1]: 36.6%
- Pain Freedom (pain-free) at 2 hours [1]: 19.2%
- Pain relief at 2 hours [1]: 56.0%
- sustained pain relief from 2 through 48 hours postdose versus placebo (Study 301, single dose, no rescue medication, P=0.0003): superiority versus placebo
- sustained pain freedom from 2 through 48 hours postdose versus placebo (Study 301, single dose, no rescue medication, P=0.013): superiority versus placebo
